# According to patent US6562837B1, “Use of tetrahydroisoquinoline compounds for the treatment of septicemia” (Korea Institute of Science & Technology, priority 1998, dated 2003):
# Columns and labels:
# [1] = tested on: NO synthesis in macrophages (RAW 264.7 cells); experiment: Suppression of LPS- and IFN-γ-induced NO synthesis in macrophage (nitrite, Griess reagent); assay type: cell-based; conditions: 18 hours, control 8, LPS + IFN-γ alone 57
# Procedure: In a DMEM medium supplemented with thermally treated 10% fetal calf serum, penicillin (100 U/ml) and streptomycin ([…]), macrophages (RAW 264.7 cells) were cultured to be confluent in a CO2 incubator. After being transferred to a serum-free DMEM medium, the cells were cultured for additional 24 hours and then, further for 18 hours in the presence of LPS (100 ng/ml) and IFN-γ, and either of the compounds of Chemical Formulas 1 and 2 (0, 1, 10, and 100:μM). The amount of the NO synthesized was measured indirectly through the amount of nitrite, an oxidation product of NO. To this end, the nitrite was subjected to color reaction with the Griess reagent (0.1% naphthylethylenediamine dihydrochloride, 1% sulphanilamide, 5% phosphate solution) and its absorbance at 550 nm was measured by a spectrophotometer.
# [2] = tested on: acute thrombosis in the pulmonary artery; experiment: Acute thrombosis (collagen plus epinephrine i.v.) in mice, recovery from paralysis; assay type: in vivo
# Procedure: A mixture of collagen (300:μg/kg) plus epinephrine (30:μg/kg) was injected into the tail vein of mice (ICR; […], the same mice were employed in all of the following experiments) to induce massive, acute thrombosis in the pulmonary artery. Thus, an acute thrombosis model, in which mice were paralyzed in 1-3 min after the injection and most of them died within 15 min was prepared. To investigate the effect of the compounds of Chemical Formulas 1 and 2 on the acute thrombosis, either of the compounds was orally administered to mice for 1 or 3 days. The intravenous injection of the mixture of collagen and epinephrine was conducted 1 hour after the final oral administration. An observation was taken to examine the mortality change and the recovery from the paralysis and the results are given in Tables 4 and 5, below.
# Most of the mice were paralyzed within 1 min after the injection, following dilation of the pupils, difficult breathing, and convulsions. Most of the mice either died within 5 min or were subjected to paralysis for 15 min or longer. Only a few of them recovered from the paralysis.
# LPS-induced DIC and MOF = experiment: Indices for bacterial endotoxin (LPS)-induced DIC and MOF in rats; assay type: in vivo; conditions: 10 mg/kg and 50 mg/kg orally, vs control given LPS (20 mg/kg) only; for number of platelets in blood: FIG. 3; for prothrombin time (PT): FIG. 4; for activated partial thromboplastin time (aPTT): FIG. 5; for fibrinogen level in blood: FIG. 6; for FDP level in blood: FIG. 7; for S-GOT level in blood: FIG. 8; for S-GPT level in blood: FIG. 9; for BUN level in blood: FIG. 10
# Procedure: Rats (Sprague-Dawley, 250±50 g) were anesthetized with ketamine (250 mg/kg) by injection (i.m.). 30 min later, LPS (20 mg/kg) was infused into the tail vein of the rats over a 3 hour period. Thereafter, blood was harvested from the artery and measured for platelet number, PT, aPTT, fibrinogen level, FDP level, and the levels of S-GOT, S-GPT and BUN. Test drugs were orally administered once a day for two days. One hour after the final administration of the compounds of interest, the rats were anesthetized.
# As an anticoagulant, sodium citrate was used. The number of platelets in the blood was measured by use of a platelet counter. Anticoagulant-treated blood was centrifuged at 1,500×g for 10 min and the plasma was obtained for testing.
# In order to obtain a prothrombin time (PT), 100 μl of the plasma was added with 50 μl of a thromboplastin reagent (Sigma, U.S.A.) and a clotting time was measured by use of a fibrometer (Becton Dickinson Co., Canada). Before mixing, the plasma and thromboplastin reagent were pre-incubated at 37° C. for 3 min and 5 min, respectively.
# For measurement of the aPTT, 100 μl of the plasma was incubated at 37° C. for 3 min and added with 100 μl of an activated partial thromboplastin time reagent (Sigma U.S.A.) and 100 μl of 0.02 M CaCl2 and a clotting time was measured by use of a fibrometer. Before addition, the reagent was pre-incubated at 37° C. for 1 min while CaCl2 was pre-warmed at 37° C.
# To determine the fibrinogen level, first, 20 μl of the plasma was mixed with 180 μl of a buffer and incubated at 37° C. for 2 min. To this solution was added 100 μl of a thrombin reagent (Sigma U.S.A.), followed by measuring a clotting time. Then, the fibrinogen level was determined from a calibration curve obtained with a fibrinogen reference.
# The FDP level was determined by use of the Thrombo-Wellcotest kit (Murex Biotech Limit, British). To this end, first, each blood sample (non-citrated) was mixed well with a soybean trypsin inhibitor and Bothrops atrox venom and incubated at 37° C. for 30 min. After centrifugation at 1,500×g for 10 min twice, the supernatant serum was diluted with a glycine saline buffer. 50 μl of the diluted serum was mixed with a drop of a latex suspension on a test slide glass and spread uniformly. The slide was placed in a shaker for 2 min and observed for agglutination. The concentration of FDP was determined semi-quantitatively as follows: with 1:0 dilution (−):0 μg/ml, (+):1 μg/ml, (++):2 μg/ml; with 1:1 dilution, (+):3 μg/ml, (++) :4 μg/ml; with 1:2 dilution (+):5 μg/ml, (++):6 μg/ml, etc.
# For the assay of S-GOT, S-GPT and BUN, diagnostic kits (Boehringer Mannheim; AST kit for S-GOT, ALT kit for S-GPT, and urea kit for BUN) were used, together with an automatic biochemical analyzer (Hitachi 747), with the help of Green Cross Reference Lab., Korea.
# In detail, after oral administration of higenamine or the compounds of Chemical Formulas 1 and 2, LPS (20 mg/kg) was injected into rats over a 3 hour period to cause DIC and MOF. In order to examine the improvement in the indices for DIC and MOF, these test animals were compared with a control which was provided with LPS only.
# LPS-caused death = experiment: Preventive effect on LPS-caused death in mice; assay type: in vivo; conditions: for survival rate until 48 hours: 10 mg/kg i.p. 30 min before LPS (20 mg/kg i.p.), LPS only about 20%; for deaths up to 30 hours after the LPS injection: 20 mg/kg i.p. 30 min before LPS (20 mg/kg i.p.)
# Procedure: When a large quantity of LPS is injected into animals, various diseases, such as DIC, are generated and they are dead of septic shock in a short period of time. In this experiment, LPS (20 mg/kg) was intraperitoneally injected into mice and the number of mice which were alive for 48 hours after the injection, was counted. Also, an examination was made of the influence of test drugs on the survival ratio.
# LPS (20 mg/kg) was administered to mice by injection (i.p.), after which the mice alive were countered every 6 hours for 48 hours. 30 min before LPS injection, test drugs were intraperitoneally injected into the mice to examine the preventive effect on the LPS-caused death.
# [3] = Toxicity experiment, 50% lethal dose (LD50); conditions: in vivo, ip; intraperitoneally injected
# [4] = 10 mg/kg orally once for three successive days, recovered within 15 min
# [5] = 10 mg/kg orally once for three successive days, recovered within 15 min, control 20%
# [6] = 50 mg/kg orally once for three successive days, recovered within 15 min
# [7] = 50 mg/kg orally once for three successive days, recovered within 15 min, control 20%
# [8] = 50 mg/kg orally once, recovered from thrombotic paralysis within 15 min
# [9] = 50 mg/kg orally once, recovered within 15 min, control 17%
# [10] = 100 mg/kg orally once, recovered from thrombotic paralysis within 15 min
# [11] = 100 mg/kg orally once, recovered within 15 min, control 17%
SMILES,Concentration of Nitrite ([1]; compound 1 μM + LPS + IFN-γ) [µM],Concentration of Nitrite ([1]; compound 10 μM + LPS + IFN-γ) [µM],Concentration of Nitrite ([1]; compound 100 μM + LPS + IFN-γ) [µM],"Mice Recovered, Number [2, 4]","Mice Recovered, % [2, 5] [%]","Mice Recovered, Number [2, 6]","Mice Recovered, % [2, 7] [%]","Mice Recovered, Number [2, 8]","Mice Recovered, % [2, 9] [%]","Mice Recovered, Number [2, 10]","Mice Recovered, % [2, 11] [%]",number of platelets in blood (LPS-induced DIC and MOF),prothrombin time (PT) (LPS-induced DIC and MOF),activated partial thromboplastin time (aPTT) (LPS-induced DIC and MOF),fibrinogen level in blood (LPS-induced DIC and MOF),FDP level in blood (LPS-induced DIC and MOF),S-GOT level in blood (LPS-induced DIC and MOF),S-GPT level in blood (LPS-induced DIC and MOF),BUN level in blood (LPS-induced DIC and MOF),survival rate until 48 hours (LPS-caused death) [%],also measured
"Oc1cc2c(cc1O)C(Cc1cccc3ccccc13)NCC2 (stereo not drawn) [Compound 1, 1-α-naphthylmethyl-6,7-dihydroxy-1,2,3,4-tetrahydroisoquinoline]",30 ± 2.9,25 ± 3.4,9 ± 3.0,3,30,5,42,8,47,9,45,increased,shortened,shortened,increased,decreased,reduction,reduction,reduction,60,deaths up to 30 hours after the LPS injection (LPS-caused death): no mice were dead until 30 hours; LD50 [3]: 290 mg/kg
"Oc1cc2c(cc1O)C(Cc1ccc3ccccc3c1)NCC2 (stereo not drawn) [Compound 2, 1-β-naphthylmethyl-6,7-dihydroxy-1,2,3,4-tetrahydroisoquinoline]",34 ± 3.1,22 ± 2.8,11 ± 2.0,7,70,7,64,14,50,12,50,increased,shortened,shortened,increased,decreased,reduction,reduction,reduction,80,deaths up to 30 hours after the LPS injection (LPS-caused death): no mice were dead until 30 hours; LD50 [3]: 439 mg/kg
"Oc1ccc(CC2NCCc3cc(O)c(O)cc32)cc1 (stereo not shown) [Higenamine, reference compound]",,,,2,17,5,45,11,37,13,48,increased,shortened,shortened,increased,decreased,reduction,reduction,reduction,80,
